# Measured values: US20250241901A1, “ACTIVATION OF MNRR1 / CHCHD2 AS A THERAPEUTIC TARGET FOR MITOCHONDRIA ASSOCIATED DISORDERS” (Wayne State University, priority 2024, published 2025)
# Legend:
# Assay type in all cases: cell-based, human
# MNRR1 = MNRR1 protein levels in MELAS cybrid cells (immunoblot); settings: 10 μM; for MNRR1 protein levels: DW7 cells, 24 h
# Method: FIGS. 6A-6C: FIG. 6A: Above, Chemical structures of nitazoxanide, its metabolites, and similar compounds. Abbreviations: P4, Phenyl-4-aminosalicylic acid; 4ABA, 4-Aminobenzanilide; 4ASA, 4-Amino salicylic acid; BA, Benzanilide; PBO, Phenyl benzoate; PSA, Phenyl salicylic acid; 2AN, 2-Amino 5-nitrothiazole. Below, Equal amounts of lysates of MELAS cells treated with Vehicle (DMSO) or the various compounds (10 μM) for 24 h were separated on an SDS-PAGE gel and probed for MNRR1 levels. Actin was probed as a loading control and numbers below represent an average and SD of 3 biological replicates. FIGS. 6B-6C: MNRR1 transcript levels are shown relative to 18S rRNA (n=4 biological replicates, error bars represent SE). In all figures, * indicates p<0.05, ** indicates p<0.005.
# FIGS. 11A-11F: RBPJk and HIF2α compete for binding at the ORE in the MNRR1 promoter to regulate transcription. FIG. 11A: Chromatin immunoprecipitation-qPCR assessing binding of HIF2α to the endogenous MNRR1 promoter in MELAS cybrid cells with 0% (CL9) and 70% heteroplasmy (DW7). FIG. 11B: Dual luciferase reporter assay showing relative activation of MNRR1-luciferase levels in MELAS cybrid cells overexpressing varying proportions of constitutively active RBPJk (RBP-CA) and HIF2α. FIG. 11C: Dual luciferase reporter assay showing relative activation of MNRR1-luciferase levels in MELAS cybrid cells overexpressing the WT (FIG. 9A) or ΔORE (positions 47-53 in SEQ ID NO: 25 in FIG. 9C) promoter with EV (dotted line) or HIF2α. FIG. 11D: Equal amounts of Control or HIFα knockdown (KD) MELAS cybrid cell lysates were separated on an SDS-PAGE gel and probed for HIF2α and MNRR1 levels. Tubulin was probed as loading control. FIG. 11E: Oxygen consumption measured from Control or HIFα knockdown (KD) MELAS cybrid cells. (n=4 biological replicates, error bars represent SE). FIG. 11F: Left, Oxygen consumption measured from MELAS cybrid cells treated with vehicle (DMSO) or PT2385 (10 μM), an inhibitor of HIF2α function, for 24 h. Right, Equal amounts of MELAS cybrid cell lysates treated with vehicle (DMSO) or PT2385 (10 μM) for 24 h, separated on an SDS-PAGE gel, and probed for MNRR1 levels. GAPDH was probed as a loading control.
# (§1) Immunoblotting: Immunoblotting was performed as described previously. Cell lysates for immunoblotting were prepared using RIPA buffer (Abcam, Waltham, MA) and included a protease and phosphatase inhibitor cocktail (Sigma, St. Louis, MO). […] The clear supernatants were transferred to new tubes and quantified using the Bradford reagent with BSA as standard (BioRad, Hercules. CA). […] For detection after immunoblotting, the SuperSignal™ West Pico PLUS substrate (ThermoFisher, Waltham, MA) was used to generate chemiluminescence signal, which was detected with X-Ray film (RadTech, Vassar, MI).
# MNRR1 promoter = test: Dual luciferase reporter assay with MNRR1 promoter deletions in MELAS cybrid cells; settings: 10 μM, 24 h
# Method: FIGS. 9A-9E: Nitazoxanide acts by reducing HIF2α levels in MELAS cells. FIG. 9A: Schematic representation of deleted regions of the MNRR1 promoter. FIG. 9B: Dual luciferase reporter assay using the MNRR1 promoter deletions in cells treated with vehicle (DMSO), nitazoxanide, or tizoxanide (10 μM) for 24 h (n=4 biological replicates). FIG. 9C: DNA sequence of region of 800-952 bp in the MNRR1 promoter (SEQ ID NO: 25) highlighting binding sites of the transcription factors shown. FIG. 9D: Transcript levels of HIF2α and HIF1α in MELAS cybrid cells harboring different levels of heteroplasmy (0% to 100%). Data from. FIG. 9E: Protein levels of HIF2α and HIF1α in cybrid cells with 0% (CL9) and 70% MELAS heteroplasmy (DW7) In all figures, * indicates p<0.05, ** indicates p<0.005.
# Luciferase reporter assay: Luciferase assays were performed with the dual-luciferase reporter assay kit (Promega). Briefly, cells were lysed in 1× passive lysis buffer (Promega) and 25 μL of lysate was used for assay with a tube luminometer using an integration time of 10 s. Transfection efficiency was normalized with the co-transfected pRL-SV40 Renilla luciferase expression plasmid.
# HIF2α = HIF2α protein levels in MELAS cybrid cells (immunoblot)
# Method: FIGS. 10A-10E: The reduction of MNRR1 in MELAS cells is via HIF2α acting at the ORE and not the HRE. FIG. 10A: Above, Equal amounts of MELAS cell lysates, treated with vehicle (DMSO) or increasing amounts of tizoxanide (2.5 to 40 μM) for 24 h, were separated on an SDS-PAGE gel and probed for HIF2α, MNRR1, and Tubulin. Below, Protein quantification for MNRR1 and HIF2α relative to Tubulin. FIG. 10B: Dual luciferase reporter assay showing relative activation of MNRR1-luciferase in MELAS cybrid cells overexpressing WT (FIG. 9A), Δ 801-952 (FIG. 9A), ΔORE (positions 47-53 of SEQ ID NO: 25 in FIG. 9C) or ΔHRE (positions 59-66 of SEQ ID NO: 25 in FIG. 9C). FIG. 10C: Dual luciferase reporter assay showing relative activation of HRE-luciferase levels in cybrid cells with 0% (CL9) and 70% MELAS heteroplasmy (DW7). […]
# as §1, with “previously.” for “previously. Cell lysates for immunoblotting were prepared using RIPA buffer (Abcam, Waltham, MA) and included a protease and phosphatase inhibitor cocktail (Sigma, St. Louis, MO).”
smiles,measurement,setting,value
"CC(=O)Oc1ccccc1C(=O)Nc1ncc([N+](=O)[O-])s1 [nitazoxanide, Nitazoxanide]",MNRR1 protein levels,MNRR1,significant increase
same,activation of MNRR1 promoter with deletion of the 801-952 region,MNRR1 promoter,failed to display activation
same,levels of HIF2α,HIF2α; MELAS cells,reduces
"O=C(Nc1ncc([N+](=O)[O-])s1)c1ccccc1O [tizoxanide, Tizoxanide]",MNRR1 protein levels,MNRR1,significant increase
same,MNRR1 levels,"MNRR1; MELAS cybrid cells, 48 h",increases MNRR1 levels
same,activation of MNRR1 promoter with deletion of the 801-952 region,MNRR1 promoter,failed to display activation
same,HIF2α protein levels relative to MNRR1,"HIF2α; MELAS cybrid cells, 2.5 to 40 μM, 24 h",inversely proportional in a concentration dependent manner to MNRR1
